# Columns and labels:
# Helpless (H) mice = conditions: cited from earlier work
# C57Bl6/J mice = conditions: cited from earlier work
# [1] = test system: central mGlu2 and mGlu3 receptors; conditions: in vivo; cited from earlier work
# group II mGlu receptors = conditions: cited from earlier work
# human mGlu3 = target: T1, human mGlu3 (Homo sapiens, UniProt Q14832); experiment: mGlu GIRK cell-based thallium flux assay, human mGlu3; conditions: HEK-293 cells co-expressing human mGlu3 and GIRK; EC80 glutamate; Tl flux
# T1 construct: expressed in transfected cells; host or cells: HEK-293
# Protocol: Human embryonic kidney (HEK-293) cell lines stably co-expressing human or rat mGlu2 and G protein-coupled inwardly rectifying potassium (GIRK) channels, or human mGlu3 and GIRK, were used for in vitro evaluation of compound activity in thallium flux assay using a fluorescent thallium indicator dye.
# The day before the assay, GIRK cells co-expressing human mGlu3, human or rat mGlu2, as described above, were plated in black-walled, clear-bottomed, amine-coated 384-well plates at a density of 15,000 cells/20 μL/well in the assay medium (glutamine-depleted basal DMEM supplemented with 10% dialyzed FBS, 20 mM HEPES, 1 mM sodium pyruvate). Cells were incubated at 37° C. in the presence of 5% CO2. The next day, assay buffer (Hanks balanced salt solution, 20 mM HEPES, 4.16 mM sodium bicarbonate, pH 7.2) was prepared to dilute compounds and Thallos AM fluorescent dye solution. The 2× Thallos dye solution (final concentration 0.34 μM to the cells) was prepared by mixing the dye stock (2.97 mM in DMSO) to 1:1 with 10% pluronic acid before adding to the assay buffer. Cells were washed with assay buffer using a microplate washer to remove the medium, resulting in 20 μL of buffer remaining in each well. Immediately, 20 μL of 2× Thallos dye solution was added to cells, and incubated for one hour at 25° C. During the cell dye loading incubation period, a 10-point concentration serial dilution of compound was created from a 10 mM DMSO compound stock by performing a 1:3 serial dilution in DMSO using the Bravo liquid handler. The 2× compound plate was generated by transferring 0.24 μL of the diluted compound in each well to a daughter plate using an Echo acoustic liquid handler. This is further diluted in 40 μL assay buffer, resulting in a range from 30 μM to 1.5 nM final concentration in the assay. The agonist plate (5×) was prepared to include EC80 glutamate concentration (a concentration to elicit 80% of a maximally effective glutamate concentration) in thallium buffer (125 mM […], 1 mM magnesium sulfate, 1.8 mM calcium sulfate, 5 mM glucose, 10 mM HEPES, pH 7.2, 12.5 mM thallium sulfate).
# (§1) After dye-loading, cell plates were washed with assay buffer to remove excess extracellular dye using a microplate washer, resulting in 20 μL of buffer remaining in each well. After a ten-minute equilibration period, cell, compound and agonist plates were loaded into a Hamamatsu μCell kinetic imaging plate reader equipped with liquid handler to monitor fluorescence changes at 480 nm excitation and 540 nm emission settings. Briefly, after collection of baseline fluorescence, 20 μL of compound was added and incubated for two minutes and twenty seconds. This is immediately followed by adding 10 μL of glutamate-thallium buffer to the wells containing compound. The fluorescent signal was monitored an additional 2.5 minutes after the glutamate addition. Multiple reference wells containing no compound received either no glutamate (for a baseline reference), […] glutamate, or ECmax glutamate (for normalization to maximum response). Fluorescence was measured throughout the experiment at a frequency of 1 measurement per every 2 seconds before the glutamate addition and a frequency of 1 measurement per every 1 second after the glutamate addition. Each compound concentration series occurred one time in each plate, and replicates from two or three plates were used in each experimental run. Thallium solutions were handled and disposed of according to guidelines from the Vanderbilt University Chemical Safety department.
# Data were normalized using a static ratio function (F/F0) by dividing every fluorescent measurement by the initial fluorescent value for the corresponding well. The increase in signal resulting from the glutamate/thallium addition of the second add was measured by determining the slope from 3 seconds to 13 seconds after the addition. […]
# human mGlu2 = target: T2, human mGlu2 (Homo sapiens, UniProt Q14416); experiment: mGlu GIRK cell-based thallium flux assay, human mGlu2; conditions: HEK-293 cells co-expressing human mGlu2 and GIRK; EC80 glutamate; Tl flux
# T2 construct: expressed in transfected cells; host or cells: HEK-293
# Protocol: The day before the assay, GIRK cells co-expressing human mGlu3, human or rat mGlu2, as described above, were plated in black-walled, clear-bottomed, amine-coated 384-well plates at a density of 15,000 cells/20 μL/well in the assay medium (glutamine-depleted basal DMEM supplemented with 10% dialyzed FBS, 20 mM HEPES, 1 mM sodium pyruvate). Cells were incubated at 37° C. in the presence of 5% CO2. […] Cells were washed with assay buffer using a microplate washer to remove the medium, resulting in 20 μL of buffer remaining in each well. Immediately, 20 μL of 2× Thallos dye solution was added to cells, and incubated for one hour at 25° C. During the cell dye loading incubation period, a 10-point concentration serial dilution of compound was created from a 10 mM DMSO compound stock by performing a 1:3 serial dilution in DMSO using the Bravo liquid handler. The 2× compound plate was generated by transferring 0.24 μL of the diluted compound in each well to a daughter plate using an Echo acoustic liquid handler.
# as §1
# Data were normalized using a static ratio function (F/F0) by dividing every fluorescent measurement by the initial fluorescent value for the corresponding well. The increase in signal resulting from the glutamate/thallium addition of the second add was measured by determining the slope from 3 seconds to 13 seconds after the addition. The average of all baseline slopes (no compound, no glutamate) was determined and this value was subtracted from all other slope values. The average of all ECmax slopes was determined and this value was used to normalize the baseline-corrected slopes to a percent max value (% Emax). The % Emax values for each compound series were plotted versus the log of the concentration and fit to a 4-parameter logistical equation with no fixed parameters.
# Potency is reported as the IC50 resulting from the curve fit.
# [2] = test system: Aβ-induced neurodegeneration; conditions: cited from earlier work
# T2 sequence (Q14416 19-872): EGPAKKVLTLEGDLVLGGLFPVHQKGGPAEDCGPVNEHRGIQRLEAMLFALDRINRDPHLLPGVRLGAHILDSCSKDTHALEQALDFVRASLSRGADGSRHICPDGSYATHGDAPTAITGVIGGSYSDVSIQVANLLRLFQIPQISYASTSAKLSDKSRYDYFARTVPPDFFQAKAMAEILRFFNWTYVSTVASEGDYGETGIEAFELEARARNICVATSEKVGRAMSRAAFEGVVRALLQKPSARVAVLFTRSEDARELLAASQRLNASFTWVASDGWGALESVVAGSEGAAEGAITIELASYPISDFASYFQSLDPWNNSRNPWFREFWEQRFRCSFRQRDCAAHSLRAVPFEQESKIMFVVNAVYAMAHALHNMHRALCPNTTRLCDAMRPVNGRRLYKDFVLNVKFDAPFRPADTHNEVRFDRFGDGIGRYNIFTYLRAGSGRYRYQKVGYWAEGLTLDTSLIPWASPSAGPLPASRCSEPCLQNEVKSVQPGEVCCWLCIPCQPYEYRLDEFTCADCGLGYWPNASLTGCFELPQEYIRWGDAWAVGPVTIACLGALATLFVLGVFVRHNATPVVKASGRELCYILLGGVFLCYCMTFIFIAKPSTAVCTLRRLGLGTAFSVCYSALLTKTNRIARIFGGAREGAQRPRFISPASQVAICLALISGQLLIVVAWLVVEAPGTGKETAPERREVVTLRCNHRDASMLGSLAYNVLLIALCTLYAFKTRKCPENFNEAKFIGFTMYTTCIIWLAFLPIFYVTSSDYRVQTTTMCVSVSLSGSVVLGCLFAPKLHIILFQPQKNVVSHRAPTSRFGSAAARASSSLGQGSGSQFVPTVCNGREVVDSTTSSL
# T1 sequence (Q14832 23-879): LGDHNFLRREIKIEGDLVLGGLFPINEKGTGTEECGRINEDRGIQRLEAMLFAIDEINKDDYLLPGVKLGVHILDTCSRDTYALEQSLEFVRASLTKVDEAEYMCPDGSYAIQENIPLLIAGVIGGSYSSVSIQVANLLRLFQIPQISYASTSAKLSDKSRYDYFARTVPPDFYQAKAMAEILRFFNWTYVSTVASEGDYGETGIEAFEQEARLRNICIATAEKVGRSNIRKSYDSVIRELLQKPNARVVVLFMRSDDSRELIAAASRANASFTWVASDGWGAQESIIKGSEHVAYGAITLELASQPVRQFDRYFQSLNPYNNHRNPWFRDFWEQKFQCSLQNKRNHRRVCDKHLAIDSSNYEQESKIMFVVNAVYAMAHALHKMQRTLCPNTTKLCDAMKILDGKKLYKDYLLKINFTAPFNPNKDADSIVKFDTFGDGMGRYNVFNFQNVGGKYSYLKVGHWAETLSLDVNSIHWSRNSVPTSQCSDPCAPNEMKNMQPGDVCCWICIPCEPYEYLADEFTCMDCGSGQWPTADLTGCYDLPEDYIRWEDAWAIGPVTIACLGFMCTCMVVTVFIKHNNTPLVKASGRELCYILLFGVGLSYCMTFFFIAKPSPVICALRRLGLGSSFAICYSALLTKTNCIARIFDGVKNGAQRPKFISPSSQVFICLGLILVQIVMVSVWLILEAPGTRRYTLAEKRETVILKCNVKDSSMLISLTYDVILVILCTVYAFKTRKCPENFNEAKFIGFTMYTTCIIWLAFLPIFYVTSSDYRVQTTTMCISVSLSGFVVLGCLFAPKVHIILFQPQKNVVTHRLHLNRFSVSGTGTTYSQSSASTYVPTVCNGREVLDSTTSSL
compound,measurement,setting,value
Cc1cc(-c2cccc(C3=Nc4cc(C)c(C(F)(F)F)cc4NC(=O)C3)c2)cc(C)n1 [RO4491533],activity in the tail suspension test,Helpless (H) mice; Helpless (H) mice,active
same,immobility time in the FST,C57Bl6/J mice,dose-dependently reduced
same,hypolocomotor effect of mGlu2/3 agonist (LY379268),[1],reversed
N[C@]1(C(=O)O)[C@H]2[C@@H](C[C@H]1OCc1ccc(Cl)c(Cl)c1)[C@]2(F)C(=O)O [BCI-632],time for which brain concentration was sufficient to inhibit group II mGlu receptors,group II mGlu receptors; active metabolite after once-daily oral dosing of prodrug BCI-838,22 h
"[2H]C([2H])([2H])Oc1ccc(-c2cc3c(cc2OCc2ccn(C)n2)CNC3=O)cc1 [Compound 24, 6-(4-(methoxy-d3)phenyl)-5-((1-methyl-1H-pyrazol-3-yl)methoxy)isoindolin-1-one]",Human mGlu3 GIRK IC50 (nM),human mGlu3,Inactive
same,IC50,human mGlu2,99.5 nM
"O=C1NCc2cc(OCc3ccn(C(F)F)n3)c(-c3ccc(F)cc3)cc21 [Compound 17, 5-((1-(difluoromethyl)-1H-pyrazol-3-yl)methoxy)-6-(4-fluorophenyl)isoindolin-1-one]",Human mGlu3 GIRK IC50 (nM),human mGlu3,Inactive
same,IC50,human mGlu2,292 nM
"[2H]C([2H])([2H])Oc1ccccc1-c1cc2c(cc1OCc1ccn(C)n1)CNC2=O [Compound 23, 6-(2-(methoxy-d3)phenyl)-5-((1-methyl-1H-pyrazol-3-yl)methoxy)isoindolin-1-one]",Human mGlu3 GIRK IC50 (nM),human mGlu3,Inactive
same,IC50,human mGlu2,7720 nM
"Cc1ncc(COc2cc3c(cc2-c2ccc(F)cc2)C(=O)NC3)s1 [Compound 2, 6-(4-fluorophenyl)-5-((2-methylthiazol-5-yl)methoxy)isoindolin-1-one]",Human mGlu3 GIRK IC50 (nM),human mGlu3,Inactive
same,IC50,human mGlu2,380 nM
"Cn1ccc(COc2cc3c(cc2-c2ccccc2F)C(=O)NC3)n1 [Compound 13, 6-(2-fluorophenyl)-5-((1-methyl-1H-pyrazol-3-yl)methoxy)isoindolin-1-one]",Human mGlu3 GIRK IC50 (nM),human mGlu3,Inactive
same,IC50,human mGlu2,214 nM
"COc1ccc(-c2cc3c(cc2OCc2csc(C)n2)CNC3=O)cc1 [Compound 19, 6-(4-methoxyphenyl)-5-((2-methylthiazol-4-yl)methoxy)isoindolin-1-one]",Human mGlu3 GIRK IC50 (nM),human mGlu3,Inactive
same,IC50,human mGlu2,119 nM
"Cc1nc(COc2cc3c(cc2-c2ccccc2C#N)C(=O)NC3)cs1 [Compound 20, 2-(6-((2-methylthiazol-4-yl)methoxy)-3-oxoisoindolin-5-yl)benzonitrile]",Human mGlu3 GIRK IC50 (nM),human mGlu3,Inactive
same,IC50,human mGlu2,189 nM
"CC(C)n1ccc(COc2cc3c(cc2-c2ccc(F)cc2)C(=O)NC3)n1 [Compound 4, 6-(4-fluorophenyl)-5-((1-isopropyl-1H-pyrazol-3-yl)methoxy)isoindolin-1-one]",Human mGlu3 GIRK IC50 (nM),human mGlu3,Inactive
same,IC50,human mGlu2,261 nM
CCCCCCCOC(=O)[C@@]1(F)[C@@H]2C[C@@H](OCc3ccc(Cl)c(Cl)c3)[C@@](N)(C(=O)O)[C@@H]21 [BCI-838],levels of monomeric and oAβ peptides in the hippocampus and cortex,"group II mGlu receptors; three months of treatment, two AD mouse models",decreased
same,Dutch APP transgene-associated learning and memory impairment,group II mGlu receptors; three months of treatment,reversed
same,anxiolytic effects,group II mGlu receptors; three months of treatment,anxiolytic effects
same,hippocampal progenitor cell proliferation,"group II mGlu receptors; wild-type and Alzheimer's diseased mice, 3 months",stimulated
"[2H]C([2H])([2H])Oc1ccc(-c2cc3c(cc2OCc2csc(C)n2)CNC3=O)cc1 [Compound 22, 6-(4-(methoxy-d3)phenyl)-5-((2-methylthiazol-4-yl)methoxy)isoindolin-1-one]",Human mGlu3 GIRK IC50 (nM),human mGlu3,Inactive
same,IC50,human mGlu2,115 nM
CNCCC(Oc1ccc(C(F)(F)F)cc1)c1ccccc1 (stereo not drawn) [fluoxetine],antidepressant effect in helpless mice,Helpless (H) mice; chronic (21 days) treatment,full antidepressant effect
"Cn1ccc(COc2cc3c(cc2-c2ccc(C#N)cc2)C(=O)NC3)n1 [Compound 14, 4-(6-((1-methyl-1H-pyrazol-3-yl)methoxy)-3-oxoisoindolin-5-yl)benzonitrile]",Human mGlu3 GIRK IC50 (nM),human mGlu3,Inactive
same,IC50,human mGlu2,242 nM
"[2H]C([2H])([2H])Oc1ccccc1-c1cc2c(cc1OCc1csc(C)n1)CNC2=O [Compound 21, 6-(2-(methoxy-d3)phenyl)-5-((2-methylthiazol-4-yl)methoxy)isoindolin-1-one]",Human mGlu3 GIRK IC50 (nM),human mGlu3,Inactive
same,IC50,human mGlu2,1320 nM
"O=C1NCc2cc(OCc3cc4n(n3)CCCO4)c(-c3ccc(F)cc3)cc21 [Compound 10, 5-((6,7-dihydro-5H-pyrazolo[5,1-b][1,3]oxazin-2-yl)methoxy)-6-(4-fluorophenyl)isoindolin-1-one]",Human mGlu3 GIRK IC50 (nM),human mGlu3,Inactive
same,IC50,human mGlu2,423 nM
"COc1cccc(COc2cc3c(cc2-c2ccc(F)cc2)C(=O)NC3)c1 [Compound 7, 6-(4-fluorophenyl)-5-((3-methoxybenzyl)oxy)isoindolin-1-one]",Human mGlu3 GIRK IC50 (nM),human mGlu3,Inactive
same,IC50,human mGlu2,8290 nM
"Cc1nc(COc2cc3c(cc2-c2ccccc2F)C(=O)NC3)cs1 [Compound 16, 6-(2-fluorophenyl)-5-((2-methylthiazol-4-yl)methoxy)isoindolin-1-one]",Human mGlu3 GIRK IC50 (nM),human mGlu3,Inactive
same,IC50,human mGlu2,357 nM
CCS(=O)(=O)N(Cc1cccnc1)c1cccc(-c2ccc(C#N)cc2)c1 [LY566332],Aβ-induced neurodegeneration,[2],amplified
"O=C1NCc2cc(OCc3ccccc3F)c(-c3ccc(F)cc3)cc21 [Compound 8, 5-((2-fluorobenzyl)oxy)-6-(4-fluorophenyl)isoindolin-1-one]",Human mGlu3 GIRK IC50 (nM),human mGlu3,Inactive
same,IC50,human mGlu2,3200 nM
"COc1ccc(-c2cc3c(cc2OCc2ccn(C)n2)CNC3=O)cc1 [Compound 12, 6-(4-methoxyphenyl)-5-((1-methyl-1H-pyrazol-3-yl)methoxy)isoindolin-1-one]",Human mGlu3 GIRK IC50 (nM),human mGlu3,Inactive
same,IC50,human mGlu2,170 nM
